Tests used:
Design in all cases: dose 200 mg/kg, route oral
Rattus norvegicus [1] = assay: Metabolic stability in Sprague-Dawley rat assessed as urinary excretion of trans-caffeic acid level at 200 mg/kg, po after 0 to 48 hrs by HPLC; format: ADME, organism-based, Urine; details: in vivo
Rattus norvegicus [2] = assay: Metabolic stability in Sprague-Dawley rat assessed as urinary excretion of trans-caffeic acid level at 200 mg/kg, po after 0 to 72 hrs by HPLC; format: ADME, organism-based, Urine; details: in vivo
Rattus norvegicus [3] = assay: Metabolic stability in Sprague-Dawley rat assessed as urinary excretion of total metabolites at 200 mg/kg, po after 0 to 8 hrs by HPLC; format: ADME, organism-based, Urine; details: in vivo
Rattus norvegicus [4] = assay: Metabolic stability in Sprague-Dawley rat assessed as urinary excretion of m-hydroxyphenyl-propionic acid level at 200 mg/kg, po after 0 to 8 hrs by HPLC; format: ADME, organism-based, Urine; details: in vivo
Rattus norvegicus [5] = assay: Metabolic stability in Sprague-Dawley rat assessed as urinary excretion of m-hydroxyphenyl-propionic acid level at 200 mg/kg, po after 0 to 12 hrs by HPLC; format: ADME, organism-based, Urine; details: in vivo
Rattus norvegicus [6] = assay: Metabolic stability in Sprague-Dawley rat assessed as urinary excretion of m-hydroxyphenyl-propionic acid level at 200 mg/kg, po after 0 to 24 hrs by HPLC; format: ADME, organism-based, Urine; details: in vivo
Rattus norvegicus [7] = assay: Metabolic stability in Sprague-Dawley rat assessed as urinary excretion of m-hydroxyphenyl-propionic acid level at 200 mg/kg, po after 0 to 36 hrs by HPLC; format: ADME, organism-based, Urine; details: in vivo
Rattus norvegicus [8] = assay: Metabolic stability in Sprague-Dawley rat assessed as urinary excretion of m-hydroxyphenyl-propionic acid level at 200 mg/kg, po after 0 to 48 hrs by HPLC; format: ADME, organism-based, Urine; details: in vivo
Rattus norvegicus [9] = assay: Metabolic stability in Sprague-Dawley rat assessed as urinary excretion of m-hydroxyphenyl-propionic acid level at 200 mg/kg, po after 0 to 72 hrs by HPLC; format: ADME, organism-based, Urine; details: in vivo
Rattus norvegicus [10] = assay: Metabolic stability in Sprague-Dawley rat assessed as urinary excretion of total metabolites at 200 mg/kg, po after 0 to 4 hrs by HPLC; format: ADME, organism-based, Urine; details: in vivo
Rattus norvegicus [11] = assay: Metabolic stability in Sprague-Dawley rat assessed as urinary excretion of trans-m-coumaric acid level at 200 mg/kg, po after 0 to 8 hrs by HPLC; format: ADME, organism-based, Urine; details: in vivo
Rattus norvegicus [12] = assay: Metabolic stability in Sprague-Dawley rat assessed as urinary excretion of trans-m-coumaric acid level at 200 mg/kg, po after 0 to 12 hrs by HPLC; format: ADME, organism-based, Urine; details: in vivo
Rattus norvegicus [13] = assay: Metabolic stability in Sprague-Dawley rat assessed as urinary excretion of trans-m-coumaric acid level at 200 mg/kg, po after 0 to 24 hrs by HPLC; format: ADME, organism-based, Urine; details: in vivo
Rattus norvegicus [14] = assay: Metabolic stability in Sprague-Dawley rat assessed as urinary excretion of trans-m-coumaric acid level at 200 mg/kg, po after 0 to 36 hrs by HPLC; format: ADME, organism-based, Urine; details: in vivo
Rattus norvegicus [15] = assay: Metabolic stability in Sprague-Dawley rat assessed as urinary excretion of trans-m-coumaric acid level at 200 mg/kg, po after 0 to 48 hrs by HPLC; format: ADME, organism-based, Urine; details: in vivo
Rattus norvegicus [16] = assay: Metabolic stability in Sprague-Dawley rat assessed as urinary excretion of trans-m-coumaric acid level at 200 mg/kg, po after 0 to 72 hrs by HPLC; format: ADME, organism-based, Urine; details: in vivo
[17] = Metabolic stability in Sprague-Dawley rat assessed as urinary excretion of unchanged drug level at 200 mg/kg, po after 0 to 4 hrs by HPLC; format: ADME, organism-based; details: urine, read-out: Activity
[18] = Metabolic stability in Sprague-Dawley rat assessed as urinary excretion of unchanged drug level at 200 mg/kg, po after 0 to 8 hrs by HPLC; format: ADME, organism-based; details: urine, read-out: Activity
[19] = Metabolic stability in Sprague-Dawley rat assessed as urinary excretion of unchanged drug level at 200 mg/kg, po after 0 to 12 hrs by HPLC; format: ADME, organism-based; details: urine, read-out: Activity
[20] = Metabolic stability in Sprague-Dawley rat assessed as urinary excretion of unchanged drug level at 200 mg/kg, po after 0 to 24 hrs by HPLC; format: ADME, organism-based; details: urine, read-out: Activity
[21] = Metabolic stability in Sprague-Dawley rat assessed as urinary excretion of unchanged drug level at 200 mg/kg, po after 0 to 36 hrs by HPLC; format: ADME, organism-based; details: urine, read-out: Activity
[22] = Metabolic stability in Sprague-Dawley rat assessed as urinary excretion of unchanged drug level at 200 mg/kg, po after 0 to 48 hrs by HPLC; format: ADME, organism-based; details: urine, read-out: Activity
[23] = Metabolic stability in Sprague-Dawley rat assessed as urinary excretion of unchanged drug level at 200 mg/kg, po after 0 to 72 hrs by HPLC; format: ADME, organism-based; details: urine, read-out: Activity
Rattus norvegicus [24] = assay: Metabolic stability in Sprague-Dawley rat assessed as urinary excretion of total metabolites at 200 mg/kg, po after 0 to 36 hrs by HPLC; format: ADME, organism-based, Urine; details: in vivo
Rattus norvegicus [25] = assay: Metabolic stability in Sprague-Dawley rat assessed as urinary excretion of total metabolites at 200 mg/kg, po after 0 to 48 hrs by HPLC; format: ADME, organism-based, Urine; details: in vivo
Rattus norvegicus [26] = assay: Metabolic stability in Sprague-Dawley rat assessed as urinary excretion of total metabolites at 200 mg/kg, po after 0 to 72 hrs by HPLC; format: ADME, organism-based, Urine; details: in vivo

O=C(/C=C/c1ccc(O)c(O)c1)O[C@H](Cc1ccc(O)c(O)c1)C(=O)O [ROSMARINIC ACID]
Activity (Rattus norvegicus [1]): 0.117%
Activity (Rattus norvegicus [2]): 0.117%
Activity (Rattus norvegicus [3]): 1.476%
Activity (Rattus norvegicus [4]): 0.949%
Activity (Rattus norvegicus [5]): 5.252%
Activity (Rattus norvegicus [6]): 14.527%
Activity (Rattus norvegicus [7]): 17.43%
Activity (Rattus norvegicus [8]): 18.357%
Activity (Rattus norvegicus [9]): 18.357%
Activity (Rattus norvegicus [10]): 0.17%
Activity (Rattus norvegicus [11]): 0.015%
Activity (Rattus norvegicus [12]): 0.1%
Activity (Rattus norvegicus [13]): 0.333%
Activity (Rattus norvegicus [14]): 0.399%
Activity (Rattus norvegicus [15]): 0.413%
Activity (Rattus norvegicus [16]): 0.413%
dose excreted [17]: 0.041%
dose excreted [18]: 0.077%
dose excreted [19]: 0.077%
dose excreted [20]: 0.077%
dose excreted [21]: 0.077%
dose excreted [22]: 0.077%
dose excreted [23]: 0.077%
Activity (Rattus norvegicus [24]): 30.483%
Activity (Rattus norvegicus [25]): 31.836%
Activity (Rattus norvegicus [26]): 31.836%
